From patent US7091351B2, “Vanadium compounds for treating cancer” (Parker Hughes Institute, priority 1998, dated 2006)

Key:
Assay type in all cases: cell-based, human
U373 glioblastoma cells = assay: MTT cytotoxicity assay of vanadocenes, U373 cells; details: 24 h
Experimental: Human testicular cancer cell lines, Tera-2 (embryonal carcinoma) and Ntera-2 (pluripotent embryonal carcinoma) were obtained from the American Type Culture Collection (ATCC) (Rockeville, Md.) and propagated in T-25, T-75, or T-150 cm^2 tissue culture flasks (Corning Corp., Corning, N.Y.) in McCoy's 5A medium and Dulbecco's modified Eagle's medium respectively. Both media were supplemented with 10% fetal calf serum (FCS), 4 mM glutamine, 100 U/ml penicillin G, and […] streptomycin sulfate. All tissue culture reagents were obtained from Life Technologies Inc. (GIBCO-BRL), Gaithersburg, Md. Cell lines were cultivated for a minimum of two passages after thawing prior to experimentation. Other cell lines that were used in this study were the human B-lineage acute lymphoblastic leukemia (ALL) cell line NALM-6. Uckun, F. M., Evans, W. E., Forsyth, C. J., Waddick, K. G., Tuel-Ahlgren, L., Chelstrom, L. M., Burkhardt, A., Bolen, J., Myers, D. E. Biotherapy of B-cell precursor leukemia by targeting genistein to CD19-associated tyrosine kinase. Science (Washington DC) 267:886–91, 1995; T-lineage ALL cell line MOLT-3, Waurzyniak, B., Shneider, E. A., Tumer, N., Yanishevski, Y., Gunther, R., Chelstrom, L., Wendorf, H., Myers, D. E., Irvin, J. D., Messinger, Y., Ek, O., Zeren, T., Chandan-Langlie, M., Evans, W. E., Uckun, F. M. In vivo toxicity, pharmacokinetics, and antileukemic activity of TXU (anti-CD7)-pokeweed antiviral protein immunotoxin. Clinical Cancer Research 3:881–890, 1997; AML cell line HL-60, Perentesis, J. P., Waddick, K. G., Bendel, A. E., Shao, Y., Warman, B. E., Chandan-Langlie, M., and Uckun, F. M. Induction of apoptosis in multi-drug resistant andradiation-resistant acute myeloid leukemia cells by a recombinant fusion toxin directed against the granulocyte macrophage colony stimulating factor receptor. Clin. Cancer Res. 3:347–355, 1997; breast cancer cell lines MDA-MB-231 and BT-20, Uckun, F. M., Narla, R. K., Jun, X., Zeren, T., Venkatachalam, T., Waddick, K. G., Rostostev, A., Myers, D. E. Cytotoxic activity of EGF-genstein against breast cancer cells. Clin. Cancer Res. 4:901–912, 1998; glioblastoma cell lines U87 and U373, Narla, R. K., Liu, X., Myers, D. E., and Uckun, F. M. 4-(3′-Bromo-4′hydroxylphenyl)-amino-6,7-dimethoxyquinazoline (WHI-P154): A novel quinazoline derivative with potent cytotoxic activity against human glioblastoma cells. Clin. Cancer Res. 4:1405–1414, 1998.
MTT (3-[4,5-dimethyl thiazol-2-yl]-2,5-diphenyltetrazolium bromide)-based colorimetric assays were used for evaluation of the cytotoxicity of vanadocene compounds. Mosmann, T. Rapid colorimetric assay for cellular growth and survival: application to proliferation and cytotoxicity assays. J. Immunol. Methods, 65: 55–63, 1983. Briefly, cells were harvested with 0.125% (w/v) trypsin-0.02% EDTA (GIBCO-BRL) from exponential-phase maintenance cultures and centrifuged (300 g×5 min). After suspension and counting, cells were dispensed within triplicate 96-well tissue culture plates in 100 μl volumes. After 24 h incubation, the culture medium was discarded and replaced with 100 μl of fresh medium containing serial two-fold dilutions of drugs in medium to yield 1.9 μM to 250 μM. All compounds were reconstituted in DMSO to a concentration of 100 mM, and the stock solution was made fresh for each experiment. Control wells consisted of medium containing 0.25% of DMSO alone were used for solvent control. Culture plates were then incubated for 24 h before adding 10 μl of MTT solution (5 mg/ml in PBS) to each well. Wells containing only medium and MTT were used as controls for each plate. The tetrazolium/formazan reaction was allowed to proceed for 4 h at 37° C., and then 100 μl of the solubilization buffer (10% sodium dodecyl sulfate in 0.1% HCl) were added to all wells and mixed thoroughly to dissolve the dark blue formazan crystals. […]

NALM-6 cells = assay: In situ detection of apoptosis, confocal microscopy, NALM-6; details: 48 hours after treatment
Experimental: Exponentially growing cells were seeded in 6-well tissue culture plates and incubated with fresh medium containing compounds. […] The cells were fixed in 2% paraformaldehyde, washed with PBS and pelleted by centrifuging the tubes at 1000 rpm for 5 min. Cells pellets were resuspended in 50 μl of PBS, transferred to superforst plus slides and allowed to attach for 15 min. The cells were permeabilized with 0.1% triton X-100 in 0.1% citrate buffer and incubated for 1 hr at 37° C. with the reaction mixture containing terminal deoxynucleotidyl transferase (TdT) and fluorescein isothiocyanate (FITC)-conjugated dUTP. Cells were washed with PBS to remove unbound reagents and the coverslips were mounted onto slides with Vectashield containing propidium iodide (Vector Labs, Burlingame, Calif.) and slides were viewed with a confocal laser scanning microscope. […] In control reactions, the TdT enzyme was omitted from the reaction mixture.

[1] = test system: HS-SULTAN multiple myeloma cells; assay: MTT cytotoxicity assay of oxovanadium(IV) compounds, HS-SULTAN; details: 48 hr
Experimental: The cytotoxicity of oxovanadium (W) complexes listed in Table 6 were tested against 9 different human cancer cell lines was performed using the MTT (3-[4,5-dimethylthiazol-2-yl]-2,5-diphenyl tetrazolium bromide) assay (Boehringer Mannheim Corp., Indianapolis, Ind.) as described previously (20). Briefly, exponentially growing tumor cells were seeded into a 96-well plate at a density of 4×10^4cells/well and incubated with medium containing the oxovanadium(IV) compounds concentrations ranging from 0.1 to 250 μM for 48 hours at 37° C. in a humidified 5% CO2 atmosphere. Triplicate wells were used for each treatment. To each well, 10 μl of MTT (0.5 mg/ml final concentration) was added and the plates were incubated at 37° C. for 4 hours to allow MTT to form formazan crystals by reacting with metabolically active cells . The formazan crystals were solubilized overnight at 37° C. in a solution containing 10% SDS in 0.01 M HCl. The absorbence of each well was measured in a microplate reader (Labsystems) at 540 nm and a reference wavelength of 690 nm. To translate the OD540 values into the number of live cells in each well, the OD540 values were compared to those on standard OD540—versus—cell number curves generated for each cell line. The percent survival was calculated using the formula: % survival=Live cell number[test]/Live cell number [control]×100. The IC50 values were calculated by non-linear regression analysis using an Graphpad Prism software version 2.0 (Graphpad Software, Inc., San Diego, Calif.).

Compound | IC50 (U373 glioblastoma cells) | apoptotic nuclei (FITC-dUTP / propidium iodide), NALM-6 (NALM-6 cells) | IC50 [1]
[Cl-].[Cl-].[V+4].c1cc[cH-]c1.c1cc[cH-]c1 [VDC, VCp2Cl2] | 42 µM | – | –
bis(4,7-dimethyl-1,10-phenanthroline)sulfatooxovanadium(IV) [Compound 29] | – | many apoptotic yellow nuclei | 0.8 ± 0.05 µM
